Measurements from patent US8895526B2, “Identification of RNAI targets and use of RNAI for rational therapy of chemotherapy-resistant leukemia and other cancers” (Cold Spring Harbor Laboratory, priority 2009, dated 2014).

Assays:
[1] = system: Molm13
[2] = system: HL60
[3] = system: non-transformed 32D cell line; settings: different concentrations
[4] = system: Kasumi1
[5] = system: MLL-AF9/Nras leukemia cells; settings: different concentrations
[6] = Tolerability of anthracycline in mice; type: in vivo; settings: applied intraperitoneally
Description: To study factors that influence the outcome of conventional AML therapy in mice, we established a simple chemotherapy regimen involving intraperitoneal injection of cytarabine (100 mg/kg over 5 days) and doxorubicin (3 mg/kg over 3 days; FIG. 36A), which mimics the standard induction therapy used to treat AML in human patients. […] Efficacy and safety of this regimen were initially evaluated in a previously described model based on co-transduction of MLL/ENL and FLT3-ITD (Ono et al. 2005). In order to rapidly generate homogenous treatment cohorts we harvested bone marrow and spleen from terminally ill primary FLC recipient mice and transplanted 1 million leukemia cells into 20-30 secondary recipients. In initial studies, we noted that this combination therapy was not tolerated in mice when treatment was initiated based on a high leukemia burden in the peripheral blood; although the peripheral disease disappeared within two days, animals died shortly thereafter with peripheral leukopenia.

[7] = system: HCT116 cells; assay: siRNA cytotoxicity: reduction in HCT116 culture confluency after transfection; type: cell-based, human; settings: relative to negative control RNAi cultures
Description: siRNAs derived from the shRNAs of Example 2 were all highly cytotoxic to HCT116 cells. The siRNA sequences and shRNAs from which they were derived are shown below
Cytotoxicity was determined by the reduction in culture confluency over time after transfection of the siRNA relative to negative control RNAi cultures.

[8] = system: Hepa1.6 cells; assay: In vitro competition assay in Hepa1.6 cells; type: cell-based, mouse; settings: five passages 1:8
Description: Two days after transduction with a GFP-tagged vector, the number of fluorescent cells was quantified. Cells were passaged 1:8 five times, and the number of GFPpositive transduced cells was quantified at each passage.

[9] = system: Mouse hepatocellular carcinoma cells (Hepa1.6); assay: Hepa1.6 colony formation assay; type: cell-based; settings: high MOI, low density plating, crystal violet
Description: (FIG. 8A) Mouse hepatocellular carcinoma cells (Hepa1.6) were transduced at high MOI with shRNAs targeting replication genes. Cells were plated at low density, stained with crystal violet, and staining was quantified on a Licor scanner. Values are normalized to empty vector control. (FIG. 8B) Representative scans of colony formation assays of cells infected with an antiproliferative shRNA (top—shRpa3.457) or empty vector control (bottom).
An assay similar to that described in Example 1 was used to test the effect of RNAi molecules against genes encoding DNA replication proteins in mouse cancer cells (Hepa1.6). Similar results in mouse cells were observed as compared to human cells (FIG. 8 and FIG. 9). For example, mouse tumors regress upon induction of RNAi against Rpa3 (FIG. 17).

[10] = system: mouse liver carcinoma cells; assay: Subcutaneous liver carcinoma tumor growth after doxycycline induction of shRNA; type: in vivo, nude mice; settings: doxycycline 2 mg/ml in drinking water from two weeks after injection
Description: One million mouse liver carcinoma cells transduced with an inducible shRpa3.457 were injected subcutaneously in nude mice. Two weeks after injection, mice were either treated with doxycycline 2 mg/ml in their drinking water, or left untreated. Change in tumor volumes was measured following treatment.

N[C@@H]1C[C@H]1c1ccccc1 (racemic) [tranylcypromine]
growth [1]: an effect on growth
growth [2]: an effect on growth
growth [3]: no impact
growth [4]: an effect on growth
proliferation [5]: dose-dependent inhibition

COc1cccc2c1C(=O)c1c(O)c3c(c(O)c1C2=O)C[C@@](O)(C(C)=O)C[C@@H]3O[C@H]1C[C@H](N)[C@H](O)[C@H](C)O1 [daunorubicin]
toxicity [6]: high toxicity

RPA3si1417: siRNA CAUCUUAUGUCCAGUUUAA (SEQ ID NO: 1), derived from v2HS_32101 (listed as RNA, chemistry not fully specified)
cytotoxicity (reduction in culture confluency over time) [7]: more cytotoxic than RPA3si1403

B1: shRpa3.457: shRNA, SEQ ID NO: 60 (nucleic acid)
chain: TGCTGTTGACAGTGAGCGCGCGACTCCTATAATTTCTAATTAGTGAAGCCACAGATGTAATTAGAAATTATAGGAGTCGCTTGCCTACTGCCTCGGA
competition with uninfected GFP-negative cells [8]: outcompeted by uninfected, GFP-negative cells
effect on colony formation [9]: antiproliferative
change in tumor volumes [10]: stopped growing or regressed
